In ChEMBL document CHEMBL4602709 (ACS Med Chem Lett, 2020):

How the values were obtained:
Homo sapiens = species on record: Homo sapiens; assay: Inhibition of VEGFR (unknown origin) assessed as residual activity at 10 uM incubated for 5 mins in presence of [gamma-33ATP] by scintillation counting based radiometry assay relative to control
[1] = target: Serine/threonine-protein kinase Nek6 (Homo sapiens, UniProt Q9HC98); assay: Inhibition of NEK6 (unknown origin) assessed as residual activity at 10 uM incubated for 5 mins in presence of [gamma-33ATP] by scintillation counting based radiometry assay relative to control
Serine/threonine-protein kinase Nek6, sequence (Q9HC98 whole entry): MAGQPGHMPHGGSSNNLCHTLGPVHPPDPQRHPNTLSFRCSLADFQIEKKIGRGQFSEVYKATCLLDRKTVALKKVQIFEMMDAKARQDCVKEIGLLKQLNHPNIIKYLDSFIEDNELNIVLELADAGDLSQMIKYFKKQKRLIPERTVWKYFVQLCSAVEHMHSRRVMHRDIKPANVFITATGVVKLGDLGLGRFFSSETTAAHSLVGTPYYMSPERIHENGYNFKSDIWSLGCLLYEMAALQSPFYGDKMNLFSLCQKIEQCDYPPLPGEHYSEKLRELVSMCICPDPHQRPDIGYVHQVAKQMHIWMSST

[2] = target: Tyrosine-protein kinase Lck (Homo sapiens, UniProt P06239); assay: Inhibition of LCK (unknown origin) assessed as residual activity at 10 uM incubated for 5 mins in presence of [gamma-33ATP] by scintillation counting based radiometry assay relative to control
Tyrosine-protein kinase Lck, sequence (P06239 2-509 limits assumed): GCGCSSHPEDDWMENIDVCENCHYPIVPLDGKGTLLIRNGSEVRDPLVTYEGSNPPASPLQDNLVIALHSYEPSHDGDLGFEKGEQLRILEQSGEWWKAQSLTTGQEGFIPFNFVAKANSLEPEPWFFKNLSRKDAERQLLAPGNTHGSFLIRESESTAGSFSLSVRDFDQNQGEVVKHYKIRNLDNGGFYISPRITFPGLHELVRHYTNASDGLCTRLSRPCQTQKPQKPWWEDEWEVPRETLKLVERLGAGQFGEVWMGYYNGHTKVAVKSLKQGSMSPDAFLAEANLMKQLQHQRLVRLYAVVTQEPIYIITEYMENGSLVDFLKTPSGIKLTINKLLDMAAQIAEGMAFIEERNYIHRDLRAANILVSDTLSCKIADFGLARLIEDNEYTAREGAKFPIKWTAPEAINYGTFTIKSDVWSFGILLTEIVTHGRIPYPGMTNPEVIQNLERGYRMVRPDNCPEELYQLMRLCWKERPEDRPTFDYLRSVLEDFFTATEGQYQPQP

[3] = target: T1, Mitogen-activated protein kinase kinase kinase kinase 3 (Homo sapiens) (UniProt Q8IVH8); assay: Inhibition of MAP4K3 (unknown origin) assessed as residual activity at 10 uM incubated for 5 mins in presence of [gamma-33ATP] by scintillation counting based radiometry assay relative to control
T1 sequence (whole entry): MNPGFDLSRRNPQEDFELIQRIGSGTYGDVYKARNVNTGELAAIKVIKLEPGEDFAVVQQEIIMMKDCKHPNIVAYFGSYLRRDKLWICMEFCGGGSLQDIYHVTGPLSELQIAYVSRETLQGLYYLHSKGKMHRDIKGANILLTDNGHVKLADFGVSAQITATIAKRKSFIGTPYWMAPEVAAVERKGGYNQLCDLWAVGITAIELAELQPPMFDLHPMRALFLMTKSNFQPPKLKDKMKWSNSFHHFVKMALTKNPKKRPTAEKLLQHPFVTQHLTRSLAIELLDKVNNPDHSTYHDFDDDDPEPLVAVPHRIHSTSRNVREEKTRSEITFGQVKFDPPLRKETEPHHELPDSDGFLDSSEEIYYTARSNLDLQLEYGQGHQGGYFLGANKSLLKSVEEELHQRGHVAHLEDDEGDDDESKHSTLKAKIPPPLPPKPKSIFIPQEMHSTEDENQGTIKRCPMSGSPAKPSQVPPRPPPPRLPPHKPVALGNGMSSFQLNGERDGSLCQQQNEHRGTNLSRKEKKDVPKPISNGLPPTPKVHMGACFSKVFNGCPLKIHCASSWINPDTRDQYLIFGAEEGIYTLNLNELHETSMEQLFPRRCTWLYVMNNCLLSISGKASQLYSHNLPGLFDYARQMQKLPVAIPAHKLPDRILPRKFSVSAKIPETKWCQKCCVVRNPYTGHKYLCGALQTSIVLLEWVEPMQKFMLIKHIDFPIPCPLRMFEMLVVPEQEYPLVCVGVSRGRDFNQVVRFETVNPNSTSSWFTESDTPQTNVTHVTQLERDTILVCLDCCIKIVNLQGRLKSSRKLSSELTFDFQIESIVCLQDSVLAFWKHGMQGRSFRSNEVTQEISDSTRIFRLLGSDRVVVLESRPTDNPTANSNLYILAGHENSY

[4] = Metabolic stability in mouse liver microsomes assessed as half life at 3 uM measured up to 30 mins in presence of NADPH by […] analysis; assay type: ADME, Microsome
[5] = target: T2, Discoidin domain-containing receptor 2 (Homo sapiens) (UniProt Q16832); assay: Inhibition of DDR2 (unknown origin) assessed as residual activity at 10 uM incubated for 5 mins in presence of [gamma-33ATP] by scintillation counting based radiometry assay relative to control
T2 sequence (whole entry): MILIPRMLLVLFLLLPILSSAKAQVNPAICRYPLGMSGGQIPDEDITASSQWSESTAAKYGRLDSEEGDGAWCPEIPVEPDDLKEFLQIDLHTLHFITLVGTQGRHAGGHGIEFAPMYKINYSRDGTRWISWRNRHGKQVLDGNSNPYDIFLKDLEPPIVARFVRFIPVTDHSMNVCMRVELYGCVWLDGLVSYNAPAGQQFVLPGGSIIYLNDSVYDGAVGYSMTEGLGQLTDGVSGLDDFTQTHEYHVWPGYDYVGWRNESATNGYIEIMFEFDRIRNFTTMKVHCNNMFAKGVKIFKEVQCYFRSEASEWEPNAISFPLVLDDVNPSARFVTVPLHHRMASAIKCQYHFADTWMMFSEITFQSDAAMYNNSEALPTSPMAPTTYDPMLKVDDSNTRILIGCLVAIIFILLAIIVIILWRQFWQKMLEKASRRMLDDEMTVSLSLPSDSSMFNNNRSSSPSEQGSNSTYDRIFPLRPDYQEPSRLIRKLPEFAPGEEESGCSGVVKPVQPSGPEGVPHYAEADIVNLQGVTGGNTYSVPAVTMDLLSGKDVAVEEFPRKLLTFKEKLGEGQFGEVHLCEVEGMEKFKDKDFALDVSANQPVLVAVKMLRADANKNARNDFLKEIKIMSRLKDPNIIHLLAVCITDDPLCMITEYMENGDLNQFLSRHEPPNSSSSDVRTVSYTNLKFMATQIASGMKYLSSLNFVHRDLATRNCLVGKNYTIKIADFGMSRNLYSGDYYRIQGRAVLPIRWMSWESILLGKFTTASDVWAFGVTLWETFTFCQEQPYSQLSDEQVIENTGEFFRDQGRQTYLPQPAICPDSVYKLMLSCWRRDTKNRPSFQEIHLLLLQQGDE

[6] = target: Platelet-derived growth factor receptor alpha (Homo sapiens, UniProt P16234); assay: Inhibition of PDGFRalpha (unknown origin) assessed as residual activity at 10 uM incubated for 5 mins in presence of [gamma-33ATP] by scintillation counting based radiometry assay relative to control
Platelet-derived growth factor receptor alpha, sequence (P16234 whole entry): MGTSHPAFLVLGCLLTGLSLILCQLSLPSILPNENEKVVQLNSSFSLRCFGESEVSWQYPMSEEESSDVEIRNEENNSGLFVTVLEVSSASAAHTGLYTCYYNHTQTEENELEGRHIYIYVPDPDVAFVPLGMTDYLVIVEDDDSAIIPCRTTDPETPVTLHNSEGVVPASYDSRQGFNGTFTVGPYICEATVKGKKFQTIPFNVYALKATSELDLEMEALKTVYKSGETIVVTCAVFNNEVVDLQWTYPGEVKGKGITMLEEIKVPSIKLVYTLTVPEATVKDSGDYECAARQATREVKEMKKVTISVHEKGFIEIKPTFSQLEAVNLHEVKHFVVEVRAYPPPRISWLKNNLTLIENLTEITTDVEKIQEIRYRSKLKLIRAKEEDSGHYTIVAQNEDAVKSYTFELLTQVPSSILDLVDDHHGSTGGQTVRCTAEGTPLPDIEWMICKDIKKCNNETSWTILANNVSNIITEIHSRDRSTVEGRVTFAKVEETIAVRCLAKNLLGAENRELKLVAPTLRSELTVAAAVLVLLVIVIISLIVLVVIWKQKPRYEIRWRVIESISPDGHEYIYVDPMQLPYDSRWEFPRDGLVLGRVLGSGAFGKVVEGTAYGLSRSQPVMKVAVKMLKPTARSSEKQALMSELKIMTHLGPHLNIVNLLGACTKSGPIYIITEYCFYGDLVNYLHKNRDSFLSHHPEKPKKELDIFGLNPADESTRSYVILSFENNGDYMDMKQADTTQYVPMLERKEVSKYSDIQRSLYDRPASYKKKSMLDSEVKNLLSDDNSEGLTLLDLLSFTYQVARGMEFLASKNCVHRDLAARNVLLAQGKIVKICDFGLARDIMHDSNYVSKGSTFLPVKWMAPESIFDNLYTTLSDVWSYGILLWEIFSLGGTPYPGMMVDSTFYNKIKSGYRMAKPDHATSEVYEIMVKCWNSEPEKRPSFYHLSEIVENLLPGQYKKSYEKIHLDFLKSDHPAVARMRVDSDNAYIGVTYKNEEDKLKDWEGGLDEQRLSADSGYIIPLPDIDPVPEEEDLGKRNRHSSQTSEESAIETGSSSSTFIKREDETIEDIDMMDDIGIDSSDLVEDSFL

[7] = target: Proto-oncogene tyrosine-protein kinase Src (Homo sapiens, UniProt P12931); assay: Inhibition of SRC (unknown origin) assessed as residual activity at 10 uM incubated for 5 mins in presence of [gamma-33ATP] by scintillation counting based radiometry assay relative to control
Proto-oncogene tyrosine-protein kinase Src, sequence (P12931 2-536 limits assumed): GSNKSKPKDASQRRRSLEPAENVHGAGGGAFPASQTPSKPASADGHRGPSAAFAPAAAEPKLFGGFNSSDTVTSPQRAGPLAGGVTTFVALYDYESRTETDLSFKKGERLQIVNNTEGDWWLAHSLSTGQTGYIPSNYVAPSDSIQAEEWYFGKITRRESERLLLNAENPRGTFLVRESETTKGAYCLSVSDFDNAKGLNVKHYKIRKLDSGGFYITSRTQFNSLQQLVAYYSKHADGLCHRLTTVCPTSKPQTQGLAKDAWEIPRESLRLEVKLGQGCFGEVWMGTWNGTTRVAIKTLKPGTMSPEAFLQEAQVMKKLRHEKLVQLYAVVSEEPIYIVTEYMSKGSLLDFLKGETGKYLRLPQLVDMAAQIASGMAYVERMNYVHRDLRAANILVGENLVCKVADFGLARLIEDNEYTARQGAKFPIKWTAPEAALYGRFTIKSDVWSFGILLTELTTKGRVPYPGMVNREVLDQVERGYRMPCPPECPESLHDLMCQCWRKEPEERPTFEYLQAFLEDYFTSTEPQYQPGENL

| SMILES | Activity (Homo sapiens) [%] | Activity [1] [%] | Activity [2] [%] | Activity [3] [%] | half-life at 3 µM [4] [min] | Activity [5] [%] | Activity [6] [%] | Activity [7] [%] |
| --- | --- | --- | --- | --- | --- | --- | --- | --- |
| Cc1ccc(C(=O)Nc2ccc(CN3Cc4cn[nH]c4C3)c(Cl)c2)cc1C#Cc1cnc2cccnn12 | 13 | 9 | 17 | 14 | 16.8 | 14 | 16 | 15 |
| Cc1cn(-c2cc(NC(=O)c3ccc(C)c(Nc4nccc(-c5cccnc5)n4)c3)cc(C(F)(F)F)c2)cn1 [NILOTINIB] | 75 | 97 | 37 | 107 | 7.89 | 4 | 56 | 74 |
